This is an account of results in patent US9428460B2, “N-[4-(quinolin-4-yloxy)cyclohexyl(methyl)](hetero)arylcarboxamides as androgen receptor antagonists, production and use thereof as medicinal products” (BAYER PHARMA AKTIENGESELLSCHAFT, priority 2012, dated 2016).

Assay [1] has as its system human uterine leiomyoma xenografts. The assay can be described thus: Growth of human xenografts from leiomyoma tissue in immunodeficient mice. The format is in vivo, mouse. The method, then:
The growth-inhibiting action of inhibitors of the androgen receptor was tested in a xenograft animal model with subcutaneously transplanted tissue fragments from human leiomyomas.
Human uterine leiomyoma tissue was derived from surgery, in which, based on the diagnosis, either a hysterectomy or a myomectomy was carried out. The uterine leiomyomas (UL) were then prepared free either from the removed uterus or by myomectomy in situ; in the last-mentioned method, the myomas were removed whole or by morcellation from the abdominal cavity.
The prepared myomas were then immediately put in a suitable sterile buffer (Vitron V7 Buffer (U.S. Pat. No. 5,328,821) or Viaspan organ transplant buffer) at 4° C. for further transport. Then, on a sterile bench with constant moistening, the UL tissue was cut into small blocks with 2×2×2 mm or 2×4×4 mm edge lengths, and the pieces of tissue were stored in a cell culture dish in PBS at room temperature until transplantation (M Fritsch et al. 2010, ISGE abstract & presentation).
Immunodeficient mice (ICR SCID, CB17 SCID, ICR-Hrhr SCID or SCID beige mice) were ovariectomized at the age of 6-8 weeks (OVX). At the earliest one week after OVX, pellets releasing 17β-estradiol (E2, 0.05 mg/90 d, Innovative Research of America, catalogue number NE-121) and progesterone (P, 25 mg/60 d, Innovative Research of America, catalogue number SP-131) (Innovative Research of America, Sarasota, Fla./USA) were transplanted into the neck region of the animals. Alternatively, the animals can be given replacement therapy with other implants or methods that ensure continuous release of the hormones 17β-estradiol and progesterone. […]
UL tissue in situ was as a rule characterized by an excessive synthesis and accumulation of proteins of the extracellular matrix, and by increased cell proliferation. […] If specific mechanisms of action of the test substances were known or presumed, in addition the cell proliferation and/or the proportion of the extracellular matrix were determined by histological staining. […]

For assay [2], the target named is androgen receptor mutant E709Y (Homo sapiens (Human), UniProt P10275, E710Y). The assay can be described thus: Transactivation assay for the androgen receptor mutant E709Y (transfected PC-3 cells). The format is cell-based. The settings on record: in the presence of 1×10^−10 M R1881, 24 hours. The procedure: PC-3 cells (Kaighn et al., Invest. Urol. 17: 16-23, 1979) were plated out at a density of 10000 cells per well of a 96-well cell culture plate in RMPI 1640 medium (F1235, Biochrom AG Berlin, Germany) that contained activated charcoal-treated calf serum (FCS Serum Gold, PAA Laboratories) at a concentration of 5% (v/v). On the next day the cells were transiently transfected with the pSG5-vector (#216201 Stratagene), which contained the sequence of the androgen receptor mutant E709Y (Georget et al., Mol. Endocrinol. 20(4): 724-734, 2006), and with the MMTV-luciferase plasmid (see above, transactivation assay for the androgen receptor mutant W741C). The cells were treated with the test substances in concentrations from 1×10^−8 to 1×10^−10 M in the presence of 1×10^−10 M R1881 and were incubated overnight at 37° C. and 5% CO2. After 24 hours, 100 μl of Steady Glo Lysis and Detection reagent (E2550, Promega) was added per well and the luminescence was read in a Victor3 Luminometer (PerkinElmer) for 1 second per well. The luminescence values obtained were normalized, wherein 100% corresponded to the effect of the unstimulated control (without R1881), and 0% corresponded to the effect of the stimulated control (R1881 plus DMSO instead of test substance). The IC50 value was determined by regression analysis based on a four-parameter equation (minimum, maximum, IC50, Hill coefficient; Y=Max+(Min−Max)/(1+(X/IC50)^Hill)).

For a further assay, the system named is LNCaP cells. The assay can be described thus: Proliferation assay with LNCaP cells. The format is cell-based. The settings on record: Homo sapiens, 168 h, in the presence of 1×10^−10 M R1881, seven days, AlamarBlue, read-out: IC50 LNCaP cell proliferation. The procedure:
LNCaP cells (Horoszewicz et al., in “Models for Prostate Cancer” (ed. G. P. Murphy), Alan R. Liss, New York 1981, p. 115-132; Horoszewicz et al., Cancer Res. 43: 1809-1818, 1983) were plated out at a density of 2000 cells per well of a 96-well cell culture plate in RMPI 1640 medium (F1275, Biochrom AG), which contained activated charcoal-treated calf serum (FCS Serum Gold, PAA Laboratories) at a concentration of 5% (v/v). Three days later the cells were treated with the test substances in concentrations from 1×10^−8 to 1×10^−10 M in the presence of 1×10^−10 M R1881. Cell proliferation was determined seven days later after incubation for 2 hours with AlamarBlue (DAL1100, Invitrogen) (Nakayama et al., J Immunol Methods, 204(2): 205-8, 1997). The fluorescence values obtained were normalized, wherein 100% corresponded to the effect of the unstimulated control (without R1881), and 0% corresponded to the effect of the stimulated control (R1881 plus DMSO instead of test substance). The IC50 value was determined by regression analysis based on a four-parameter equation (minimum, maximum, IC50, Hill coefficient; Y=Max+(Min−Max)/(1+(X/IC50)^Hill)).

Molecules are shown by their SMILES.

androgen receptor mutant E709Y, sequence (P10275 whole entry E710Y): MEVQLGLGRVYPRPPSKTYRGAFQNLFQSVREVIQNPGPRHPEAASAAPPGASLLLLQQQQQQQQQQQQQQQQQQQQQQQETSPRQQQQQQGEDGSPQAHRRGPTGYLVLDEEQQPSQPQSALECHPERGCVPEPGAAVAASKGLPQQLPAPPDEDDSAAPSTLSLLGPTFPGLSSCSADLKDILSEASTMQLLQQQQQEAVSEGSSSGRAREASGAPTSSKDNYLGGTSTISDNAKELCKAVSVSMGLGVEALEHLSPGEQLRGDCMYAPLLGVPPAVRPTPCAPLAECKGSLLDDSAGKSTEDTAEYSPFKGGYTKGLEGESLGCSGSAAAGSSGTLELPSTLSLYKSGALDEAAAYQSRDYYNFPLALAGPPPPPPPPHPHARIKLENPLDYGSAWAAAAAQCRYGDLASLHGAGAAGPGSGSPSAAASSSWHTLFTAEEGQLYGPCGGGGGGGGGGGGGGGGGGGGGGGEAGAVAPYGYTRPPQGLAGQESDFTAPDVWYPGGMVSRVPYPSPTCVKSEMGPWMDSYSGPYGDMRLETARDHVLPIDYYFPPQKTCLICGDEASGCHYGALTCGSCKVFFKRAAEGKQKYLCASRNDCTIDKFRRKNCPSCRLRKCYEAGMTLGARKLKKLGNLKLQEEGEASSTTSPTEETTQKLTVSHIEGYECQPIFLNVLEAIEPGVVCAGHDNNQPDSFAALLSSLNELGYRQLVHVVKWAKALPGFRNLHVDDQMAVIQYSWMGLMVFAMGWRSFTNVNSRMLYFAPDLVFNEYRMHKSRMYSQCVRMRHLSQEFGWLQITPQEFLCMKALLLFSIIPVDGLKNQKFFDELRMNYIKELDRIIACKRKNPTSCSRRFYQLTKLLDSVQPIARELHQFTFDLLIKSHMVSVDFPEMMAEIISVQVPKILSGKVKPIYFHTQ

Consider `N#Cc1cccc2c(O[C@H]3CC[C@H](NC(=O)c4cccc(F)c4)CC3)ccnc12` [Example 23, N-{trans-4-[(8-cyanoquinolin-4-yl)oxy]cyclohexyl}-3-fluorobenzamide], for which the “inhibition of the growth of uterine leiomyoma xenografts” value in assay [1] (70 mg/kg/d, in 3 out of 4 independent experiments with tissue from different donors) is “significant inhibition”. Further, the “average inhibition of the normalized xenograft growth over the transplantation weight on day 0” value is on record as −24% in assay [1] (dose of 25 mg/kg/d) and −59% in assay [1] (dose of 70 mg/kg/d). Further, the IC50 in assay [2] is 0.009 µM; in the assay on LNCaP cells, 0.028 µM.
